Literature values in patent publication US20020058028A1, “METHOD OF IN SITU DIAGNOSIS BY SPECTROSCOPIC ANALYSIS OF BIOLOGICAL STAIN COMPOSITIONS” (priority 1999, published 2002).
Read-outs that look alike come from different tables or passages of the source.

Experiments:
Schistosoma mansoni = details: in vitro
Staphylococcus aureus = details: for active concentration against epidemic strains of methicillin-resistant Staphylococcus aureus: compared with vancomycin
[1] = tested on: human epidermoid carcinoma (A-253) cells
[2] = tested on: local tumor recurrence in the area of the anastomosis
C. albicans [3] = details: energy dose 1.32 J at 2.04 J/cm2
Trichoderma Viride = details: outside the body
bladder carcinoma cells = details: in vitro; versus Azure C, Methylene violet, Thionin, methylene green, haematoporphyrin
solid Ehrlich carcinomas = details: mice; laser 647 nm and 676 nm
HeLa cells = details: for incubation time to saturation of uptake: 10(−5) M
[4] = tested on: microtubule cytoskeleton of cultured cells; details: untreated control cells normal
[5] = tested on: several other Candida spp.
[6] = tested on: influenza or encephalomyelitis viruses; details: human blood plasma; plasma proteins not significantly altered
C. albicans [7] = details: conditions employed

For CN(C)c1ccc2cc3ccc(N(C)C)cc3nc2c1 [acridine orange], the “killing upon exposure to light” value (Schistosoma mansoni) is listed as “kills”.

For Cc1cc(=[N+](C)C)cc2sc3cc(N(C)C)cc(C)c3nc1-2.[Cl-] [dimethyl methylene blue], the “active concentration against epidemic strains of methicillin-resistant Staphylococcus aureus” value (Staphylococcus aureus) is listed as “lower than that of vancomycin” and the “increase in bactericidal activity on illumination, typical” value (“increase in bactericidal activity” for short) (Staphylococcus aureus) is listed as about 4 fold.

In the case of CCCCN1C(=O)C(=C/C=C/C=C2\Oc3ccccc3N2CCCS(=O)(=O)[O-])C(=O)N(CCCC)C1=S.[Na+] [merocyanine 540], the “white light dose for ninety % reduction of clonogenicity” value (“white light dose for ninety % reduction” below) [1] is given as 1.5 J/cm2.

For CN(C)c1ccc2nc3ccc(=[N+](C)C)cc-3sc2c1 [methylene blue], the “increase in bactericidal activity” value (Staphylococcus aureus) is listed as about 4 fold, the “local tumor growth in treated areas” value ([2]; after PDT-treatment) is listed as “no local tumor growth within 6 months” and the “complications during or after PDT” value ([2]; experimental or clinical) is listed as “no experimental or clinical complications”. For the same molecule, the “sensitization to killing by GaAs laser light” value (C. albicans [3]) was “able to sensitize”, the killing upon illumination (Trichoderma Viride) was “kill” and the “phototoxicity compared with other dyes” value (bladder carcinoma cells) was “most phototoxic”. For the same molecule, the tumor necrosis (small adenocarcinomas; 72 hours after PDT-treatment, proven experimentally) was 4-5 mm, the tumors destroyed (small adenocarcinomas; after the second PDT-treatment) was 6 out of 10 and the “carcinomas with inhibited growth” value (small adenocarcinomas; after the treatment) was “Four”. For the same molecule, the tumor destruction (solid Ehrlich carcinomas) was “significant tumor destruction, including complete tumor destruction”, the “killing upon exposure to light” value (Schistosoma mansoni) was “kills” and the “incubation time to saturation of uptake” value (HeLa cells; HeLa cells) was 6 h. For the same molecule, the “cell photoinactivation, comparison” value (HeLa cells; HeLa cells) was “higher than that produced by TB”, the “concentration at which dark damage was not observed” value (HeLa cells; HeLa cells, elevated photoinactivation detected at this concentration) was 10(−5) M and the “microtubule network after photodynamic treatment” value [4] was “considerable or severe disorganization of the microtubule network”.

In the case of CCNc1cc2[s+]c3cc(NCC)c(C)cc3nc2cc1C.[Cl-] [new methylene blue], the “active concentration against epidemic strains of methicillin-resistant Staphylococcus aureus” value (Staphylococcus aureus) is given as “lower than that of vancomycin” and the “increase in bactericidal activity” value (Staphylococcus aureus) is given as about 4 fold.

In the case of Cc1cc2nc3ccc(N(C)C)cc3[s+]c2cc1N.[Cl-] [toluidine blue O, 3-amino-7-(dimethylamino)-2-methyl phenothiazin-5-ium chloride], the “ATP levels after photodynamic treatment” value (Kluyveromyces marxianus) is given as “lowered the ATP levels”, the “enzyme inhibition after treatment with dye and light” value (Kluyveromyces marxianus) is given as “inhibition of alcohol dehydrogenase, cytochrome c oxidase, glyceraldehyde-3-phosphate dehydrogenase and hexokinase” and the clonogenicity (Kluyveromyces marxianus; photosensitizer with light) is given as “induce loss of clonogenicity”. For the same molecule, the “sensitization to killing by HeNe laser light” value [5] was “able to sensitize”, the “white light dose for ninety % reduction” value [1] was 1.0 J/cm2 and the “virus inactivation by light in presence of dye” value [6] was “inactivated by light”. For the same molecule, the “concentration at which dark damage was not observed” value (HeLa cells) was 10(−5) M, the “incubation time to saturation of uptake” value (HeLa cells; HeLa cells) was 12 h and the “microtubule network after photodynamic treatment” value [4] was “considerable or severe disorganization of the microtubule network”.

In the case of CN[C@H](CC(C)C)C(=O)N[C@H]1C(=O)N[C@@H](CC(N)=O)C(=O)N[C@H]2C(=O)N[C@H]3C(=O)N[C@H](C(=O)N[C@H](C(=O)O)c4cc(O)cc(O)c4-c4cc3ccc4O)[C@H](O)c3ccc(c(Cl)c3)Oc3cc2cc(c3O[C@@H]2O[C@H](CO)[C@@H](O)[C@H](O)[C@H]2O[C@H]2C[C@](C)(N)[C@H](O)[C@H](C)O2)Oc2ccc(cc2Cl)[C@H]1O [vancomycin], the “concentration against epidemic strains of methicillin-resistant Staphylococcus aureus” value (Staphylococcus aureus; comparator) is given as at least 0.5 µM.

In the case of Dihaematoporphyrin ester, the photosensitizer effectiveness (C. albicans [7]) is given as “not an effective photosensitizer”.

For aluminum disulphonated phthalocyanine, the “sensitization to killing by GaAs laser light” value (C. albicans [3]) is given as “not”.

In the case of rhodamine 123, the “white light dose for ninety % reduction” value [1] is listed as 1.2 J/cm2.
